Source: US8586551B2, “18-membered macrocycles and analogs thereof” (Optimer Pharmaceuticals, Inc., priority 2005, dated 2013)
Values after ≈ are worked out from the molar mass of the structure shown. Where two headings read alike, the source gives them in different places.

Tested on: C. difficile clinical isolates
Test: MIC via agar dilution versus 110 clinical isolates of C. difficile
Assay type: cell-based

SMILES: CCc1c(Cl)c(O)c(Cl)c(O)c1C(=O)O[C@H]1[C@H](O)[C@H](OC)[C@H](OCC2=CC=CC[C@H](O)C(C)=C[C@H](CC)[C@@H](O[C@@H]3OC(C)(C)[C@@H](OC(=O)C(C)C)[C@H](O)[C@@H]3O)C(C)=CC(C)=CC[C@@H]([C@@H](C)O)OC2=O)O[C@@H]1C [R-Tiacumicin B, 3-[[[6-Deoxy-4-O-(3,5-dichloro-2-ethyl-4,6-dihydroxybenzoyl)-2-O-methyl-β-D-mannopyranosyl]oxy]-methyl]-12(R)-[[6-deoxy-5-C-methyl-4-O-(2-methyl-1-oxopropyl)-β-D-lyxo-hexopyranosyl]oxy]-11(S)-ethyl-8(S)-hydroxy-18(S)-(1(R)-hydroxyethyl)-9,13,15-trimethyloxacyclooctadeca-3,5,9,13,15-pentaene-2-one]
- MIC (Clostridioides difficile): 0.125 µg/mL (≈ 0.118 µM)
- MIC (Clostridioides difficile, isolate 61 5930, read-out: MIC): 0.03 µg/mL (≈ 0.0284 µM)
- MIC (Clostridioides difficile, isolate 65 5967, read-out: MIC): 0.06 µg/mL (≈ 0.0567 µM)
- MIC (Clostridioides difficile, isolate 68 6368, read-out: MIC): 0.03 µg/mL (≈ 0.0284 µM)
- MIC (Clostridioides difficile, isolate 77 6390, read-out: MIC): 0.06 µg/mL (≈ 0.0567 µM)
- MIC (Clostridioides difficile, isolate 82 6329, read-out: MIC): 0.06 µg/mL (≈ 0.0567 µM)
- MIC (Clostridioides difficile, isolate 83 6330, read-out: MIC): 0.06 µg/mL (≈ 0.0567 µM)
- MIC (Clostridioides difficile, isolate 85 6332, read-out: MIC): 0.06 µg/mL (≈ 0.0567 µM)
- MIC (Clostridioides difficile, isolate 86 6333, read-out: MIC): 0.03 µg/mL (≈ 0.0284 µM)
- MIC (Clostridioides difficile, isolate 96 6348, read-out: MIC): 0.06 µg/mL (≈ 0.0567 µM)
- MIC (Clostridioides difficile, isolate 103 6068, read-out: MIC): 0.06 µg/mL (≈ 0.0567 µM)
- MIC (Clostridioides difficile, isolate 104 6060, read-out: MIC): 0.03 µg/mL (≈ 0.0284 µM)
- MIC (Clostridioides difficile, isolate 105 6071, read-out: MIC): 0.03 µg/mL (≈ 0.0284 µM)
- MIC (Clostridioides difficile, isolate 106 6078, read-out: MIC): 0.03 µg/mL (≈ 0.0284 µM)
- MIC (Clostridioides difficile, isolate 107 6079, read-out: MIC): 0.06 µg/mL (≈ 0.0567 µM)
- MIC (Clostridioides difficile, isolate 111 6279, read-out: MIC): 0.03 µg/mL (≈ 0.0284 µM)
- MIC (Clostridioides difficile, isolate 112 6280, read-out: MIC): 0.06 µg/mL (≈ 0.0567 µM)
- MIC (Clostridioides difficile, isolate 113 6304, read-out: MIC): 0.06 µg/mL (≈ 0.0567 µM)
- MIC (Clostridioides difficile, isolate 114 386, read-out: MIC): 0.06 µg/mL (≈ 0.0567 µM)
- MIC (Clostridioides difficile, isolate 116 5702, read-out: MIC): 0.06 µg/mL (≈ 0.0567 µM)
- MIC (Clostridioides difficile, isolate 117 6026, read-out: MIC): 0.06 µg/mL (≈ 0.0567 µM)
- MIC (Clostridioides difficile, isolate 120 6057, read-out: MIC): 0.03 µg/mL (≈ 0.0284 µM)
- MIC (Clostridioides difficile, isolate 121 6072, read-out: MIC): 0.06 µg/mL (≈ 0.0567 µM)
- MIC (Clostridioides difficile, isolate AB2 1725, read-out: MIC): 0.06 µg/mL (≈ 0.0567 µM)
- MIC (Clostridioides difficile, isolate AC1 1546, read-out: MIC): 0.06 µg/mL (≈ 0.0567 µM)
- MIC (Clostridioides difficile, isolate AJ1 1557, read-out: MIC): 0.06 µg/mL (≈ 0.0567 µM)
- MIC (Clostridioides difficile, isolate AL1 1753, read-out: MIC): 0.06 µg/mL (≈ 0.0567 µM)
- MIC (Clostridioides difficile, isolate B1 832, read-out: MIC): 0.06 µg/mL (≈ 0.0567 µM)
- MIC (Clostridioides difficile, isolate BH1 4506, read-out: MIC): 0.06 µg/mL (≈ 0.0567 µM)
- MIC (Clostridioides difficile, isolate BM1 1453, read-out: MIC): 0.06 µg/mL (≈ 0.0567 µM)
- MIC (Clostridioides difficile, isolate BR1 1321, read-out: MIC): 0.06 µg/mL (≈ 0.0567 µM)
- MIC (Clostridioides difficile, isolate BT1 706, read-out: MIC): 0.06 µg/mL (≈ 0.0567 µM)
- MIC (Clostridioides difficile, isolate D1 1360, read-out: MIC): 0.03 µg/mL (≈ 0.0284 µM)
- MIC (Clostridioides difficile, isolate E1 816, read-out: MIC): 0.06 µg/mL (≈ 0.0567 µM)
- MIC (Clostridioides difficile, isolate J1 5971, read-out: MIC): 0.06 µg/mL (≈ 0.0567 µM)
- MIC (Clostridioides difficile, isolate J7 4224, read-out: MIC): 0.03 µg/mL (≈ 0.0284 µM)
- MIC (Clostridioides difficile, isolate J9 4478, read-out: MIC): 0.06 µg/mL (≈ 0.0567 µM)
- MIC (Clostridioides difficile, isolate O1 1861, read-out: MIC): 0.06 µg/mL (≈ 0.0567 µM)
- MIC (Clostridioides difficile, isolate Y1 5639, read-out: MIC): 0.06 µg/mL (≈ 0.0567 µM)
- MIC (Clostridioides difficile, isolate Y2 1459, read-out: MIC): 0.06 µg/mL (≈ 0.0567 µM)
- MIC (Clostridioides difficile, isolate Z1 3036, read-out: MIC): 0.03 µg/mL (≈ 0.0284 µM)
- MIC (isolate 64 5940): 0.125 µg/mL (≈ 0.118 µM)
- MIC (isolate 67 6367): 0.125 µg/mL (≈ 0.118 µM)
- MIC (isolate 70 6376): 0.125 µg/mL (≈ 0.118 µM)
- MIC (isolate 71 6379): 0.125 µg/mL (≈ 0.118 µM)
- MIC (isolate 72 6380): 0.125 µg/mL (≈ 0.118 µM)
- MIC (isolate 75 6388): 0.125 µg/mL (≈ 0.118 µM)
- MIC (isolate 76 6389): 0.125 µg/mL (≈ 0.118 µM)
- MIC (isolate 80 6327): 0.125 µg/mL (≈ 0.118 µM)
- MIC (isolate 81 6328): 0.125 µg/mL (≈ 0.118 µM)
- MIC (isolate 84 6331): 0.125 µg/mL (≈ 0.118 µM)
- MIC (isolate 87 6334): 0.125 µg/mL (≈ 0.118 µM)
- MIC (isolate 88 6335): 0.125 µg/mL (≈ 0.118 µM)
- MIC (isolate 90 6338): 0.125 µg/mL (≈ 0.118 µM)
- MIC (isolate 91 6339): 0.125 µg/mL (≈ 0.118 µM)
- MIC (isolate 93 6341): 0.125 µg/mL (≈ 0.118 µM)
- MIC (isolate 95 6347): 0.125 µg/mL (≈ 0.118 µM)
- MIC (isolate 98 6350): 0.125 µg/mL (≈ 0.118 µM)
